# How the values were obtained:
# [1] = test system: offspring from dosed females; conditions: mouse, in vivo
# Description: Offspring from dosed females were mated and checked for fertility to determine possible inheritable effects.
# Src = target: T1, Src (Homo sapiens, UniProt P12931); test: Src kinase assay in immune-complexes with enolase as substrate, EGF-stimulated HT1080 cells; type: cell-based; conditions: EGF 100 ng/ml 10 min, peptide 1 nM
# T1 construct: lysates were immune-precipitated with the anti-Src MAb and Src activity in immune-complexes was assayed using enolase as a substrate; endogenous in cells; host or cells: HT1080 human fibrosarcoma cells
# T1 sequence (P12931 whole entry): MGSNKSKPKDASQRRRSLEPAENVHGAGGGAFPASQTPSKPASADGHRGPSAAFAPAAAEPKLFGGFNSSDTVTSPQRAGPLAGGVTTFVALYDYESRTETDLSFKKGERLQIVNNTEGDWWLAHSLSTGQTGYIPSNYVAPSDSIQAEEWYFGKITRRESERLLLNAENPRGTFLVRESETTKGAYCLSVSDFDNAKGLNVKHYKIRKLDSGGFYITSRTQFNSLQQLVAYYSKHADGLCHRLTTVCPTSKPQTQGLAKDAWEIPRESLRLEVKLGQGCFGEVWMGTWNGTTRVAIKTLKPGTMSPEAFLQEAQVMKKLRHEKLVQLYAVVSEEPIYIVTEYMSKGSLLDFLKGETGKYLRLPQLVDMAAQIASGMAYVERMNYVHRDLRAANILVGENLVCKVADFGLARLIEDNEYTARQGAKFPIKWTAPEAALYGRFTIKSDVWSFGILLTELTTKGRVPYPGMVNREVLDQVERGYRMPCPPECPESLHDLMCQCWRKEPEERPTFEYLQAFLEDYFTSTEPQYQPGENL
# Description: FIG. 3: Inhibition by S1 peptide of AR/Src complex, Src activation and DNA synthesis triggered by EGF in HT1080 cells. Quiescent HT1080 cells were used. The cells were left un-stimulated or stimulated for 10 min with EGF (at 100 ng/ml; Roche) in the absence or presence of S1 or Ss peptide (both at 1 nM). Casodex (at 10 μM) was used for comparison with the S1 peptide. The same concentrations of peptides and Casodex were used throughout the experiments. Upper section in A, the Western blot of HT1080 cell lysates with anti-EGFR antibody is shown. […] Lower section in A, lysates were immune-precipitated with anti EGFR Ab and proteins in immune-complexes were detected using antibodies against the indicated proteins. In B, lysates were immune-precipitated with the anti-Src MAb and Src activity in immune-complexes was assayed using enolase as a substrate. In C, cells on coverslips were left untreated or treated for 18 h with the indicated compounds. After in vivo pulse with BrdU (100 μM; Sigma), BrdU incorporation was analyzed by IF and expressed as % of total nuclei. Mean and SEM are shown. n represents the number of experiments.
# Src tyrosine kinase was immune-precipitated, detected and assayed using enolase as a substrate (15). Src, EGF-R and tubulin were detected from cell lysates using appropriate antibodies (7). AR was immune-precipitated and detected as reported (3). […]
# HT1080 cells = test: BrdU incorporation (DNA synthesis) in HT1080 cells; type: cell-based, human; conditions: 18 h, EGF 100 ng/ml, peptide 1 nM
# Description: Androgen challenging of these cells neither induces AR nuclear translocation, nor enhances DNA synthesis while robustly increases cell motility. In A, quiescent HT1080 cells were transfected with 3416 or 3424 ARE-luc constructs with or without hAR expressing plasmid. Details of these procedures have been described in Methods. Cells were left un-stimulated or stimulated for 18 h with 10 nM R1881. The luciferase activity was assayed, normalized using beta-gal as an internal control, and expressed as fold induction. Means and SEM are shown; n represents the number of experiments. […] In B, quiescent HT1080 cells on coverslips were left untreated or treated for 60 min with 10 nM R1881. Cells were analysed by IF for AR (left images) or Hoechst (right images). Images are representative of three independent experiments. […] In C, BrdU incorporation in cells on coverslips was analysed and expressed as in FIG. 2. In D, the number of migrated cells was evaluated and expressed as relative increase. […]
# FIG. 3: Inhibition by S1 peptide of AR/Src complex, Src activation and DNA synthesis triggered by EGF in HT1080 cells. […] Lower section in A, lysates were immune-precipitated with anti EGFR Ab and proteins in immune-complexes were detected using antibodies against the indicated proteins. […] After in vivo pulse with BrdU (100 μM; Sigma), BrdU incorporation was analyzed by IF and expressed as % of total nuclei. […]
substance,measurement,setting,value
Ac-PPPHPHARIK-NH2 [VAL001],fertility of offspring from dosed females,[1],no abnormalities noted
same,EGF stimulation of Src activity,Src,almost completely abolished
same,EGF-triggered DNA synthesis (BrdU incorporation),HT1080 cells,inhibits

# From patent publication US10400008B2, “Modulators of the SRC-kinase activity for preventing or treating metastatic cancer” (Cancer Research Technology Limited, priority 2013, dated 2019)
